# Measurements as given in patent US20150105252A1, “SUBSTITUTED PYRAZOLES AS HERBICIDES” (E I DU PONT DE NEMOURS AND COMPANY, priority 2013, published 2015).
# Key:
# [1] = tested on: field bindweed; test: Test F postemergence; assay type: in vivo, Convolvulus arvensis; settings: scale 0 to 100
# From the text: Seeds of plant species selected from corn (Zea mays), soybean (Glycine max), velvetleaf (Abutilon theophrasti), lambsquarters (Chenopodium album), wild poinsettia (Euphorbia heterophylla), pigweed, palmer (palmer pigweed, Amaranthus palmeri), common waterhemp (Amaranthus rudis), surinam grass (Brachiaria decumbens), large crabgrass (Digitaria sanguinalis), crabgrass, Brazil (Brazilian crabgrass, Digitaria horizontalis), fall panicum (Panicum dichotomiflorum), giant foxtail (Setaria faberii), green foxtail (Setaria viridis), goosegrass (Eleusine indica), johnsongrass (Sorghum halepense), common ragweed (Ambrosia elation), barnyardgrass (Echinochloa crus-galli), southern sandbur (Cenchrus echinatus), arrowleaf sida (Sida rhombifolia), Italian ryegrass (Lolium multiflorum), dayflower, VA (Virginia (VA) dayflower, Commelina virginica), field bindweed (Convolvulus arvensis), cocklebur (common cocklebur, Xanthium strumarium), morningglory (Ipomoea coccinea), nightshade (eastern black nightshade, Solanum ptycanthum), kochia (Kochia scoparia), yellow nutsedge (Cyperus esculentus), and hairy beggarticks (Bidens pilosa), were planted into a silt loam soil and treated preemergence with test chemicals formulated in a non-phytotoxic solvent mixture which included a surfactant.
# At the same time, plants from these crop and weed species and also horseweed (Canada horseweed, Conyza canadensis), smartweed (ladysthumb smartweed, Polygonum persicaria), waterhemp_RES1, (ALS & Triazine resistant common waterhemp, Amaranthus rudis), and waterhemp_RES2, (ALS & HPPD resistant common waterhemp, Amaranthus rudis) were treated with postemergence applications of test chemicals formulated in the same manner. Plants ranged in height from 2 to 18 cm for postemergence treatments (1- to 4-leaf stage). Treated plants and controls were maintained in a greenhouse for 14 to 21 days, after which time all species were compared to controls and visually evaluated. Plant response ratings, summarized in Table F, are based on a scale of 0 to 100 where 0 is no effect and 100 is complete control. A dash (-) response means no test result.
# [2] = tested on: common chickweed; test: Test E preemergence; assay type: in vivo, Stellaria media; settings: 21 days, scale 0 to 100
# From the text: Seeds of plant species selected from bermudagrass (Cynodon dactylon), Surinam grass (Brachiaria decumbens), crabgrass, large (large crabgrass, Digitaria sanguinalis), crabgrass, naked (naked crabgrass, Digitaria nuda), foxtail, green (green foxtail, Setaria viridis), johnsongrass (Sorghum halepense), kochia (Kochia scoparia), morningglory (pitted morningglory, Ipomoea lacunosa), nutsedge, purple (purple nutsedge, Cyperus rotundus), ragweed (common ragweed, Ambrosia elation), mustard, black (black mustard, Brassica nigra), guineagrass (Panicum maximum), dallisgrass (Paspalum dilatatum), barnyardgrass (Echinochloa crus-galli), sandbur (southern sandbur, Cenchrus echinatus), sowthistle (common sowthistle, Sonchus oleraceous), ryegrass, Italian (Italian ryegrass, Lolium multiflorum), signalgrass (broadleaf signalgrass, Brachiaria platyphylla), dayflower, VA (Virginia (VA) dayflower, Commelina virginica), bluegrass (annual bluegrass, Poa annua), quackgrass (Elytrigia repens), mallow (common mallow, Malva sylvestris), buckwheat, wild (wild buckwheat, Polygonum convolvulus), leafy spurge (Euphorbia esula), common chickweed (Stellaria media), wild poinsettia (Euphorbia heterophylla), pigweed, palmer (palmer pigweed, Amaranthus palmeri), and pigweed (redroot pigweed, Amaranthus retroflexus) were planted into a blend of loam soil and sand and treated preemergence with test chemicals formulated in a non-phytotoxic solvent mixture which included a surfactant.
# Treated plants and controls were maintained in a greenhouse for 21 days, after which time all species were compared to controls and visually evaluated. Plant response ratings, summarized in Table E, are based on a scale of 0 to 100 where 0 is no effect and 100 is complete control. A dash (-) response means no test result.
# [3] = tested on: chamomile; test: Test D preemergence; assay type: in vivo, Matricaria inodora; settings: scale 0 to 100
# From the text: Seeds of plant species selected from bluegrass (annual bluegrass, Poa annua), blackgrass (Alopecurus myosuroides), canarygrass (littleseed canarygrass, Phalaris minor), chickweed (common chickweed, Stellaria media), galium (catchweed bedstraw, Galium aparine), bromegrass, downy (downy bromegrass, Bromus tectorum), field poppy (Papaver rhoeas), field violet (Viola arvensis), foxtail, green (green foxtail, Setaria viridis), deadnettle (henbit deadnettle, Lamium amplexicaule), ryegrass, Italian (Italian ryegrass, Lolium multiflorum), kochia (Kochia scoparia), lambsquarters (Chenopodium album), oilseed rape (Brassica napus), pigweed (redroot pigweed, Amaranthus retroflexus), chamomile (scentless chamomile, Matricaria inodora), speedwell (bird's-eye speedwell, Veronica persica), barley, spring (spring barley, Hordeum vulgare), wheat, spring (spring wheat, Triticum aestivum), buckwheat, wild (wild buckwheat, Polygonum convolvulus), mustard, wild (wild mustard, Sinapis arvensis), oat, wild (wild oat, Avena fatua), radish, wild (wild radish, Raphanus raphanistrum), windgrass (Apera spica-venti), Russian thistle (Salsola kali), barley, winter (winter barley, Hordeum vulgare), and wheat, winter (winter wheat, Triticum aestivum) were planted into a silt loam soil and treated preemergence with test chemicals formulated in a non-phytotoxic solvent mixture which included a surfactant.
# At the same time, these species were planted in pots containing Redi-Earth® planting medium (Scotts Company, 14111 Scottslawn Road, Marysville, Ohio 43041) comprising spaghnum peat moss, vermiculite, wetting agent and starter nutrients and treated with postemergence applications of the test chemicals formulated in the same manner. Plants ranged in height from 2 to 18 cm (1- to 4-leaf stage). Treated plants and controls were maintained in a controlled growth environment for 14 to 21 days after which time all species were compared to controls and visually evaluated. Plant response ratings, summarized in Table D, are based on a scale of 0 to 100 where 0 is no effect and 100 is complete control. A dash (-) response means no test result.
# [4] = tested on: rice; test: Test C flooded paddy test; assay type: in vivo, Oryza sativa; settings: Flood
# How it was run: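 Compound was added to standing water 3 cm above soil, flood maintained, and plants held in a greenhouse before visual scoring against controls at 13 to 15 days.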
# [5] = 31 g ai/ha, scale 0 to 100 (0 no effect, 100 complete control)
# [6] = 62 g ai/ha, scale 0 to 100 (0 no effect, 100 complete control)
# [7] = 125 g ai/ha, scale 0 to 100 (0 no effect, 100 complete control)
structure (smiles),measurement,setting,value
"CCc1cc(C(=O)NCC(F)(F)F)nn1Cc1ccnc(C(F)(F)F)c1 [Compound 78, 5-ethyl-N-(2,2,2-trifluoroethyl)-1-[[(2-trifluoromethyl)-4-pyridinyl]methyl]-1H-pyrazole-3-carboxamide]","Plant response rating, Field Bindweed","[1]; Postemergence, 31 g ai/ha",40
same,"Plant response rating, Field Bindweed","[1]; Postemergence, 125 g ai/ha",90
same,"Plant response rating, Field Bindweed","[1]; Postemergence, 250 g ai/ha",95
same,"Plant response rating, Field Bindweed","[1]; postemergence, 62 g ai/ha",70
same,"Plant response rating, Field Bindweed","[1]; postemergence, 500 g ai/ha",98
CCc1cc(C(=O)NC(C)C)nn1Cc1ccnc(C(F)(F)F)c1 [Compound 103],"Plant response rating, Common Chickweed",[2]; 16 g ai/ha,98
same,"Plant response rating, Common Chickweed",[2]; 31 g ai/ha,100
same,"Plant response rating, Common Chickweed",[2]; 62 g ai/ha,100
same,"Plant response rating, Common Chickweed",[2]; 125 g ai/ha,100
same,"Plant response rating, Common Chickweed",[2]; 250 g ai/ha,100
CCOc1cc(C(=O)NCC(F)(F)F)nn1Cc1ccnc(C(F)(F)F)c1 [Compound 104],"Plant response rating, Field Bindweed","[1]; Postemergence, 31 g ai/ha",70
same,"Plant response rating, Field Bindweed","[1]; Postemergence, 125 g ai/ha",90
same,"Plant response rating, Field Bindweed","[1]; Postemergence, 250 g ai/ha",90
same,"Plant response rating, Field Bindweed","[1]; postemergence, 62 g ai/ha",70
same,"Plant response rating, Field Bindweed","[1]; postemergence, 500 g ai/ha",95
same,"Plant response rating, Common Chickweed",[2]; 16 g ai/ha,100
same,"Plant response rating, Common Chickweed",[2]; 31 g ai/ha,100
same,"Plant response rating, Common Chickweed",[2]; 62 g ai/ha,100
same,"Plant response rating, Common Chickweed",[2]; 125 g ai/ha,100
same,"Plant response rating, Common Chickweed",[2]; 250 g ai/ha,100
CCCc1cc(C(=O)NCC(F)(F)F)nn1Cc1ccnc(C(F)(F)F)c1 [Compound 105],"Plant response rating, Field Bindweed","[1]; Postemergence, 31 g ai/ha",70
same,"Plant response rating, Field Bindweed","[1]; Postemergence, 125 g ai/ha",70
same,"Plant response rating, Field Bindweed","[1]; Postemergence, 250 g ai/ha",80
same,"Plant response rating, Field Bindweed","[1]; postemergence, 62 g ai/ha",75
same,"Plant response rating, Field Bindweed","[1]; postemergence, 500 g ai/ha",90
same,"Plant response rating, Common Chickweed",[2]; 16 g ai/ha,98
same,"Plant response rating, Common Chickweed",[2]; 31 g ai/ha,100
same,"Plant response rating, Common Chickweed",[2]; 62 g ai/ha,100
same,"Plant response rating, Common Chickweed",[2]; 125 g ai/ha,100
same,"Plant response rating, Common Chickweed",[2]; 250 g ai/ha,100
CCCc1cc(C(=O)NCC(F)(F)F)nn1Cc1cc(C(F)(F)F)nn1C [Compound 138],"Plant response rating, Chamomile",[3]; 31 g ai/ha,0
same,"Plant response rating, Chamomile",[3]; 62 g ai/ha,95
same,"Plant response rating, Chamomile",[3]; 125 g ai/ha,100
same,"Plant response rating, Chamomile",[3]; 250 g ai/ha,100
CCCNC(=O)c1cc(CCCl)n(Cc2ccnc(C(F)(F)F)c2)n1 [Compound 145],"Plant response rating, Rice",[4]; [5],0
same,"Plant response rating, Rice",[4]; [6],20
same,"Plant response rating, Rice","[4]; 125 g ai/ha, scale 0 to 100",25
same,"Plant response rating, Rice","[4]; 250 g ai/ha, scale 0 to 100",40
CCOc1cc(C(=O)NC(C)C)nn1Cc1ccnc(C(F)(F)F)c1 [Compound 188],"Plant response rating, Chamomile",[3]; 31 g ai/ha,100
same,"Plant response rating, Chamomile",[3]; 62 g ai/ha,100
same,"Plant response rating, Chamomile",[3]; 125 g ai/ha,100
same,"Plant response rating, Chamomile",[3]; 250 g ai/ha,100
same,"Plant response rating, Field Bindweed","[1]; Postemergence, 31 g ai/ha",70
same,"Plant response rating, Field Bindweed","[1]; Postemergence, 125 g ai/ha",90
same,"Plant response rating, Field Bindweed","[1]; Postemergence, 250 g ai/ha",95
same,"Plant response rating, Field Bindweed","[1]; postemergence, 62 g ai/ha",70
same,"Plant response rating, Field Bindweed","[1]; postemergence, 500 g ai/ha",95
CCOc1cc(C(=O)NC2CC2)nn1Cc1ccnc(C(F)(F)F)c1 [Compound 189],"Plant response rating, Chamomile",[3]; 31 g ai/ha,65
same,"Plant response rating, Chamomile",[3]; 62 g ai/ha,100
same,"Plant response rating, Chamomile",[3]; 125 g ai/ha,100
same,"Plant response rating, Chamomile",[3]; 250 g ai/ha,100
CCONC(=O)c1cc(OCC)n(Cc2ccnc(C(F)(F)F)c2)n1 [Compound 195],"Plant response rating, Rice",[4]; [5],0
same,"Plant response rating, Rice",[4]; [6],0
same,"Plant response rating, Rice",[4]; [7],0
same,"Plant response rating, Rice","[4]; 250 g ai/ha, scale 0 to 100",20
CCc1cc(C(=O)NC2CC2)nn1Cc1ccnc(OCC(F)(F)F)c1 [Compound 200],"Plant response rating, Rice",[4]; [5],0
same,"Plant response rating, Rice",[4]; [6],0
same,"Plant response rating, Rice",[4]; [7],15
same,"Plant response rating, Rice","[4]; 250 g ai/ha, scale 0 to 100",20
CCc1cc(C(=O)NC2CC2)nn1Cc1cc(C(F)(F)C(F)(F)F)nn1C [Compound 226],"Plant response rating, Rice",[4]; [5],0
same,"Plant response rating, Rice",[4]; [6],0
same,"Plant response rating, Rice",[4]; [7],0
